# Patent US12673083B2, “TREM-1 inhibitors for the treatment of vaso-occlusions and tissue injuries in patients suffering from sickle cell disease” (INSERM (INSTITUT NATIONAL DE LA SANTÉ ET DE LA RECHERCHE …, priority 2019, dated 2026)
# “Also recorded” adds a separate entry of the source.
# Experiments:
# neutrophils (PMNs) = assay: Hypoxia-reoxygenation experimental vaso-occlusive crisis: abundance of neutrophils on histological sections; assay type: in vivo, sickle cell mice (SS)
# Protocol: (§1) Experiments were performed on 4-6 week-old sex matched healthy control (Hba^tm1(HBA)Tow Hbb^tm3(HBG1,HBB) Tow) (HbAA (hα/hα::β^A/β^A)) and SCD (Hba^tm1(HBA)Tow Hbb^tm2(HBG1,HBB*)Tow) (HbSS (hα/hα::βS/βS)) mice as well as SAD transgenic sickle mice with or without Trem-1 gene deletion (TREM-1 KO). The animal protocol was approved by the Paris Descartes University Animal Care and Use Committee and the French Ministry of Agriculture. Animals were anesthetized with isoflurane, and whole blood was collected from each mouse via retro-orbital venipuncture by heparinized microcapillaries. In anesthetized animals, organs were immediately removed and divided into two and either immediately frozen in liquid nitrogen or fixed in 10% formalin and embedded in paraffin for histology.
# (§2) In order to test the pharmacological inhibition of TREM-1 on erythrocyte vascular congestion and neutrophils infiltrates, homozygous HbS (SS) mice were subjected to 14 hours hypoxia (8% oxygen) and then 1 hours reoxygenation (21% oxygen) to trigger acute vaso-occlusive crisis as previously described (Sabaa N et al. J Clin Invest. 2008 May; 118(5):1924-33). The TREM-1 inhibitory peptide for each of the hypoxia-reoxygenation experiments was administered by intraperitoneal injection just prior to the onset of hypoxia, as well as at the end of hypoxia, at the beginning of the reoxygenation phase. These conditions reproduce a situation of severe hypoxia for SCD, provoking crises and damage related to ischemia-reperfusion. After this experiment, the tissues were analyzed in the same way as for the SS mice in the base state.
# Ter 119+ erythrocytes = assay: Hypoxia-reoxygenation experimental vaso-occlusive crisis: vascular congestion with erythrocytes on histological sections; assay type: in vivo, sickle cell mice (SS)
# Protocol: as §1, §2
# neutrophils = assay: Intravital microscopy of neutrophils in post-capillary venous microcirculation of the cremaster after TNFα injection; assay type: in vivo, HbSS knock-in sickle cell mice; details: HbSS mice
# Protocol: as §1
# To characterize in vivo the effects of the TREM-1 pathway on neutrophils recruitment, we used a protocol as previously described (Koehl B et al. Haematologica. 2017 July; 102(7):1161-1172). Male mice were anaesthetized by spontaneous inhalation of isoflurane and maintained at 37° C. with a heating pad. The left jugular vein was cannulated to administer drugs and antibodies. […] 2 h after TNFα injection, the cremaster muscle was incised and neutrophils were monitored by injection of labeled Phycoerythrin-conjugated anti-Ly6G antibody (0.05 μg/g body weight, clone RB6-8C5, BD Biosciences Pharmingen). Venules were visualized with an intravital microscope (Zeiss Examiner D1) equipped with a water-immersion objective (Zeiss Plan-Apochromat 20×/1.0 NA) and fluorescence excitation was made through a Lambda DG-4 high-speed wavelength switcher (Sutter Instrument). […] Images were analyzed using SlideBook 6.0 software (Intelligent Imaging Innovations). The neutrophil rolling flux fraction, adhesion density, adhesion efficiency and transmigration were measured using playback assessment of 3-min digital time-lapse videos and 3D z-stack recordings of single unbranched venules (3 venules per mouse, 20-40 μm) from 2.5 hours to 5 hours after the TNFα challenge at 30-min intervals. […]
# [1] = histological sections of lung, SS LR12 vs SS PBS
substance,measurement,setting,value
"LR12: 12 amino-acid TREM-1 inhibitory peptide LQEEDAGEYGCM, N-terminal 12 amino-acids of LR17 (TLT-1 derived) (Synthetic LR12)","abundance of neutrophils, liver (% green fluorescent surface)","neutrophils (PMNs); histological sections of liver, SS LR12 vs SS PBS",significant reduction
same,"abundance of neutrophils, lung (% green fluorescent surface)",neutrophils (PMNs); [1],significant reduction
same,abundance of neutrophils in tissues,"neutrophils (PMNs); tissues of sickle cell mice during experimental vaso-occlusive crisis (summary statement, FIGS. 4A and 4B)",significant reduction
same,"vascular congestion with Ter 119+ erythrocytes, liver","Ter 119+ erythrocytes; histological sections of liver, SS LR12 vs SS PBS, intraperitoneal, hypoxia-reoxygenation",significant reduction
same,"vascular congestion with Ter 119+ erythrocytes, lung",Ter 119+ erythrocytes; [1],not in lung sections
same,"vascular congestion with Ter 119+ erythrocytes, renal medulla","Ter 119+ erythrocytes; histological sections of renal medulla, SS LR12 vs SS PBS",significant reduction
same,"vascular congestion with Ter 119+ erythrocytes, spleen","Ter 119+ erythrocytes; histological sections of spleen, SS LR12 vs SS PBS",significant reduction
same,vascular congestion of tissues,"Ter 119+ erythrocytes; tissues of sickle cell mice (summary statement, FIGS. 3A-3D)",significant reduction
same,neutrophil rolling,"neutrophils; between 3 h and 4 h30 post-injection of TNFα, LR12 6 mg/kg 10 min before and 3 mg/kg 3 h15 after TNFα, 2way ANOVA P value=0.0041",significant reduction; also recorded: reduces
same,neutrophil transmigration,"neutrophils; from 3 h to 5 h post-TNFα, 2way ANOVA P value <0.0001",significant reduction; also recorded: reduces
same,neutrophil adhesion,"neutrophils; throughout the experiment after TNFα, 2way ANOVA P value <0.0001",significant reduction; also recorded: reduces
